The test system of one data set is AMPKα. As to the kind of experiment: Measurement of AMPK-activation effect (AMPKα Thr172 phosphorylation immunoassay in MCF7 cells). The settings on record: 24 hours; for AMPK activation effect 10 uM (%) / AMPK activation effect 50 uM (%): relative to untreated cells. The data set is classed as cell-based, human. How it is done:
MCF7 cells derived from human breast cancer cells (commercially available from the Korean Cell Line Bank) were used, and the AMPK (5′-AMP-activated protein kinase alpha)-activation effect of the biguanide derivative was confirmed using an AMPKα immunoassay kit (Invitrogen, Catalog No. KH00651).
MCF7 cells were cultured in a DMEM medium supplemented with 10% fetal bovine serum. Thereafter, the cultured MCF7 cells were put into a 6-well plate with approximately 5×10^5 cells per well and cultured in an incubator supplied with 5% CO2. Culture media were treated with the derivatives synthesized in the examples at contents of 5, 10 and 50 μM, and then cultured for 24 hours. Metformin hydrochloride was used as the control, and the culture media were treated with 0.05, 0.5, 1, 2, 5 and 10 mM metformin hydrochloride, and then tested in the same manner as described in the derivatives synthesized in the examples. Subsequently, the cells were lysed according to a method presented in the operation manual of the AMPKα immunoassay kit, and 20 μg of a cell lysate was then yielded through protein assay. Thereafter, the AMPK activation effect was obtained by determining the degree of phosphorylation of 172nd threonine residue (Thr172) of the AMPKα from the cell lysate according to the method presented in the operation manual of the AMPKα immunoassay kit. […] A curve graph showing AMPK activation according to the concentration of the treated compounds was plotted based on the obtained AMPKα activation results, the concentration (activation concentration 150, AC150) value of the compound whose AMPK activation reached 150% was calculated using a GraphPad Prism 5.0 program, and the degrees of AMPK activation were obtained when concentrations of the treated biguanide derivatives were 10 μM and 50 μM and the metformin hydrochloride was 50 μM.

A further data set relates to HCT116 cells. As to the kind of experiment: Measurement of effect of inhibiting cancer cell proliferation (MTT). In kind it is cell-based. The settings on record: Homo sapiens; for inhibition at 100 µM: HCT-116, 100 uM, 48 hours, read-out: Cell Growth Inhibition (%) at 100 uM; for GI50: HCT-116, 48 hours. The text has this: HCT116 cells derived from human colorectal cancer (commercially available from the Korean Cell Line Bank) were used, and the effect of inhibiting cancer cell proliferation of the biguanide derivative was confirmed by measuring the concentration value (cell growth inhibition concentration, GIC50) at which cell growth was inhibited by 50% using a 3-(4,5-dimethylthiazol-2-yl)-2,5-[…] bromide (MTT) reagent.
First, HCT116 cells were put on a 96-well plate and cultured in a DMEM medium containing 10% fetal bovine serum for 16 hours so that the cellcount in each well was approximately 5,000. Subsequently, to obtain the GIC50 value of each compound, culture media were treated with 100 μM, 25 μM, 6.25 μM, 1.56 μM or 0.39 μM of the compound, and then cultured for 48 hours. At this time, some of the compounds were treated with 200 μM instead of 100 μM. Metformin hydrochloride was used as the control, and the culture media were treated with 25, 12.5, 2.5, 0.5, 0.1 mM metformin hydrochloride, and then tested in the same manner as described in the derivatives synthesized in the examples. In order to determine whether the cells survived after treatment with the compound, MTT was added to the culture media which were then cultured for another 3 hours. Formed formazane crystals were dissolved using dimethyl sulfoxide (DMSO), and the absorbance of the resulting solution was measured at 560 nm. After the 48-hours culture, the ratio of the cell count cultured on a well plate not treated with the compound to the living cell count on a well plate treated with the compounds synthesized in the examples was indicated as cell viability (%) according to each treated concentration. A cell viability curve graph was plotted and the concentration (GIC50) value of the compound at which the growth was inhibited by 50% was calculated to confirm the effect of inhibition of cancer cell proliferation. Also, the cell growth viability (%) when the concentration of the treated biguanide derivative and the metformin hydrochloride as the control were 100 uM was shown.

One may read the inhibition as the change of the read-out against control, counted positive when it falls. One may read the GI50 as the concentration that inhibits growth by half. Low values mean more potent growth inhibition, high ones less potent growth inhibition. One may read the melting point as the temperature of the solid-liquid transition. Take `Cl.N=C(NCc1ccc(C(F)(F)F)c(F)c1)NC(=N)N1CCCCC1` [Example 46, N1-piperidine-N5-(3-fluoro-4-trifluoromethyl)benzyl biguanide hydrochloride]: the melting point was in the range of 264 to 266 °C. For the same molecule, in the data set on AMPKα, the “AMPK activation effect 10 uM (%)” value is recorded as 331%, the “AMPK activation effect 50 uM (%)” value came out at 389% and the “AC150 (concentration at which AMPK activation reached 150%)” value worked out at 1.1 µM. Besides, in the data set on HCT116 cells, the inhibition at 100 µM was determined as 101% and the GI50 turned out to be 21.3 µM.

On to `Cl.N=C(NCc1ccco1)NC(=N)N1CCCCC1` [Example 23, N1-piperidine-N5-(furan-2-ylmethyl)biguanide hydrochloride], for which the melting point fell in the range of 251 to 252 °C. In the data set on AMPKα, the “AMPK activation effect 10 uM (%)” value worked out at 112%, the “AMPK activation effect 50 uM (%)” value was found to be 298% and the “AC150 (concentration at which AMPK activation reached 150%)” value was 15.8 µM. Moreover, in the data set on HCT116 cells, the inhibition at 100 µM stood at 39.5% and the GI50 was above 100 µM.

In turn, `Cl.N=C(NCCc1cccs1)NC(=N)N1CCCCC1` [Example 56, N1-piperidine-N5-(thiophene-2-yl)ethyl biguanide hydrochloride] returned a melting point of 176 to 178 °C. For the same molecule, in the data set with AMPKα, the “AMPK activation effect 10 uM (%)” value is on record as 612% and the “AC150 (concentration at which AMPK activation reached 150%)” value turned out to be 9.0 µM. The inhibition at 100 µM in the data set on HCT116 cells was 97.6%.

As to `Cl.N=C(NCCc1ccc(Cl)cc1)NC(=N)N1CCCCCC1` [Example 61, N1-azepane-N5-((4-chloro)phenethyl)biguanide hydrochloride], the melting point is 181 to 183 °C. Also, in the data set with AMPKα, the “AMPK activation effect 10 uM (%)” value worked out at 1130% and the “AC150 (concentration at which AMPK activation reached 150%)” value turned out to be 0.5 µM. Moreover, in the data set on HCT116 cells, the inhibition at 100 µM was 94.3% and halving of growth (GI50) required 19.8 µM.

Consider `Cl.N=C(NCc1ccc(Cl)c(Cl)c1)NC(=N)N1CCCCC1` [Example 55, N1-piperidine-N5-(3,4-dichloro)benzyl biguanide hydrochloride], for which the melting point fell in the range of 242 to 244 °C. Moreover, in the data set on AMPKα, the “AMPK activation effect 10 uM (%)” value was determined as 443%, the “AMPK activation effect 50 uM (%)” value was 830% and the “AC150 (concentration at which AMPK activation reached 150%)” value came to 0.9 µM. In the data set with HCT116 cells, the inhibition at 100 µM came out at 97.7% and growth was halved (GI50) at 10.3 µM.

For the molecule `CNC(=N)NC(=N)N1CCCCC1.Cl` [Example 8, N1-piperidine-N5-methyl biguanide hydrochloride], the melting point was 211 to 212 °C. Further, in the data set on AMPKα, the “AMPK activation effect 10 uM (%)” value was determined as 139%, the “AMPK activation effect 50 uM (%)” value is 500% and the “AC150 (concentration at which AMPK activation reached 150%)” value turned out to be 9.0 µM. In the data set with HCT116 cells, the inhibition at 100 µM is 50.5% and the GI50 was 88.6 µM.

Molecule `Cl.N=C(NC(=N)N1CCCCC1)NC1CCCC1` [Example 14, N1-piperidine-N5-cyclopentyl biguanide hydrochloride] returned a melting point of 154 to 155 °C. In the data set on AMPKα, the “AMPK activation effect 10 uM (%)” value came out at 114%, the “AMPK activation effect 50 uM (%)” value stood at 157% and the “AC150 (concentration at which AMPK activation reached 150%)” value was found to be 38.3 µM. For the same molecule, in the data set on HCT116 cells, the inhibition at 100 µM stood at 30.4% and the GI50 was above 100 µM.

On to `Cl.N=C(NCc1ccc(F)cc1)NC(=N)N1CCCCC1` [Example 30, N1-piperidine-N5-(4-fluoro)benzyl biguanide hydrochloride], for which the melting point fell in the range of 250 to 251 °C. For the same molecule, in the data set on AMPKα, the “AMPK activation effect 10 uM (%)” value stood at 143%, the “AMPK activation effect 50 uM (%)” value worked out at 278% and the “AC150 (concentration at which AMPK activation reached 150%)” value is 13.1 µM. In the data set with HCT116 cells, the inhibition at 100 µM was 47% and the GI50 was above 100 µM.

Molecule `Cl.N=C(NCc1ccc(Br)cc1)NC(=N)N1CCCCC1` [Example 35, N1-piperidine-N5-(4-bromo)benzyl biguanide hydrochloride] returned a melting point of 261 to 262 °C. Moreover, in the data set with AMPKα, the “AMPK activation effect 10 uM (%)” value was 140%, the “AMPK activation effect 50 uM (%)” value stood at 150% and the “AC150 (concentration at which AMPK activation reached 150%)” value was 1.1 µM. Also, in the data set with HCT116 cells, the inhibition at 100 µM is 53.8% and it took 23.2 µM to inhibit growth by half (GI50).

`Cl.N=C(NCc1ccc(Cl)cc1)NC(=N)N1CCCC1` [Example 31, N1-pyrrolidine-N5-(4-chloro)benzyl biguanide hydrochloride]: the melting point is 250 to 251 °C. In the data set with AMPKα, the “AMPK activation effect 10 uM (%)” value is 304%, the “AMPK activation effect 50 uM (%)” value is 776% and the “AC150 (concentration at which AMPK activation reached 150%)” value is 2.3 µM. Further, in the data set on HCT116 cells, the inhibition at 100 µM worked out at 65.9% and growth was halved (GI50) at 17.6 µM.

`Cl.N=C(NCc1ccc(OC(F)(F)F)c(Cl)c1)NC(=N)N1CCCCC1` [Example 50, N1-piperidine-N5-(3-chloro-4-trifluoromethoxy)benzyl biguanide hydrochloride] returned a melting point of 240 to 241 °C. Moreover, in the data set with AMPKα, the “AMPK activation effect 10 uM (%)” value was 259% and the “AC150 (concentration at which AMPK activation reached 150%)” value worked out at 8.8 µM. For the same molecule, in the data set on HCT116 cells, the inhibition at 100 µM turned out to be 97% and the GI50 worked out at 5.7 µM.

Regarding `Cl.N=C(NCCc1ccccc1)NC(=N)N1CCCCCC1` [Example 59, N1-azepane-N5-(phenethyl)biguanide hydrochloride], the melting point was 211 to 213 °C. For the same molecule, in the data set with AMPKα, the “AMPK activation effect 10 uM (%)” value is reported as 194%, the “AMPK activation effect 50 uM (%)” value is 373% and the “AC150 (concentration at which AMPK activation reached 150%)” value was determined as 0.7 µM. In addition, in the data set on HCT116 cells, the inhibition at 100 µM amounted to 56.6% and the GI50 was 21.9 µM.

On to `Cl.N=C(NC(=N)N1CCCC1)NC1CCCC1` [Example 13, N1-pyrrolidine-N5-cyclopentyl biguanide hydrochloride], for which the melting point was 200 to 201 °C. For the same molecule, in the data set on AMPKα, the “AMPK activation effect 10 uM (%)” value was found to be 131%, the “AMPK activation effect 50 uM (%)” value is reported as 375% and the “AC150 (concentration at which AMPK activation reached 150%)” value came out at 11.9 µM. Besides, in the data set on HCT116 cells, the inhibition at 100 µM amounted to 41.9% and the concentration for 50% growth inhibition (GI50) was above 100 µM.

For `Cl.N=C(NC(=N)N1CCCCC1)NC1CCCCCC1` [Example 18, N1-piperidine-N5-cycloheptyl biguanide hydrochloride], the melting point lay in the range of 237 to 238 °C. In addition, in the data set on AMPKα, the “AMPK activation effect 10 uM (%)” value was determined as 304%, the “AMPK activation effect 50 uM (%)” value came to 719% and the “AC150 (concentration at which AMPK activation reached 150%)” value was found to be 2.2 µM. In the data set with HCT116 cells, the inhibition at 100 µM turned out to be 64.3% and the GI50 was found to be 23.1 µM.

`COc1ccc(CNC(=N)NC(=N)N2CCCCC2)cc1.Cl` [Example 28, N1-piperidine-N5-(4-methoxy)benzyl biguanide hydrochloride]: the melting point fell in the range of 213 to 214 °C. Also, in the data set on AMPKα, the “AMPK activation effect 10 uM (%)” value was 258%, the “AMPK activation effect 50 uM (%)” value is given as 628% and the “AC150 (concentration at which AMPK activation reached 150%)” value stood at 3.9 µM. In the data set on HCT116 cells, the inhibition at 100 µM was found to be 28.3% and the GI50 is above 100 µM.

With `Cl.N=C(NCc1cccc(C(F)(F)F)c1)NC(=N)N1CCCCC1` [Example 7, N1-piperidine-N5-(3-trifluoromethyl)benzyl biguanide hydrochloride], the melting point lay within 259 to 260 °C. Further, in the data set on AMPKα, the “AMPK activation effect 10 uM (%)” value turned out to be 582%, the “AMPK activation effect 50 uM (%)” value is reported as 677% and the “AC150 (concentration at which AMPK activation reached 150%)” value amounted to 1.0 µM. In the data set with HCT116 cells, the inhibition at 100 µM came to 97.4% and the GI50 was determined as 17.2 µM.

(Values after patent US9321742B2, “N1-cyclic amine-N5-substituted biguanide derivatives, methods of preparing the same and pharmaceutical composition comprising the same” (IMMUNOMET THERAPEUTICS INC., priority 2011, dated 2016).)
